Results published in PMC10527014 (Antiviral research, 2023).
Where two headings read alike, the source gives them in different places.

Legend:
[1] = system: EV-D68 MP30 PP (mouse-adapted US/MO/14-18949); assay: EV-D68 respiratory infection model in four-week-old AG129 mice; assay type: in vivo; conditions: days 1 and 3 p.i., P≤0.05 vs placebo; guanidine 100 mg/kg/day
[2] = system: EV-D68 MP30 PP (mouse-adapted); assay: EV-D68 neurological infection; assay type: in vivo, AG129 mice
EV-D68 [3] = conditions: mouse model of EV-D68-associated AFM; ref Hixon et al., 2017; cited from earlier work
EV-71 = conditions: read-out: IC50 against EV-71 in vitro; ref Zhang et al., 2012; cited from earlier work
EV-D68 [4] = conditions: read-out: EC50 against EV-D68; ref Liu et al., 2015b; cited from earlier work
CYP3A4 [5] = conditions: 1 μM, rifampicin as positive control, previously tested
[6] = target: T1, pregnane X-receptor (PXR) (Homo sapiens, UniProt O75469); assay: PXR agonist activity
T1 sequence (O75469 1-434): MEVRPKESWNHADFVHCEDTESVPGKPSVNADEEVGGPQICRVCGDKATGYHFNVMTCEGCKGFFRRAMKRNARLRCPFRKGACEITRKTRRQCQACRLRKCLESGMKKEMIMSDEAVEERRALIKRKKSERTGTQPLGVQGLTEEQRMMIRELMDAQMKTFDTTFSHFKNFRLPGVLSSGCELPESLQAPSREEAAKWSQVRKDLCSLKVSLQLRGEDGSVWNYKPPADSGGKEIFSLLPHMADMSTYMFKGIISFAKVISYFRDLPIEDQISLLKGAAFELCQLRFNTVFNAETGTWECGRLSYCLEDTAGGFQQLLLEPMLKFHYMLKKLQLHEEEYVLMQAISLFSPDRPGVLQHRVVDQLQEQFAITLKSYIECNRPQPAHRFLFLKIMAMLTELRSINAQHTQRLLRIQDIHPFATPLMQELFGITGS

[7] = system: enterovirus / picornavirus infections; conditions: cited from earlier work
CYP3A4 [8] = target: CYP3A4 (Homo sapiens, UniProt P08684); conditions: human liver microsomes, at higher concentrations (Fig. S21)
[9] = system: 215 clinical isolates of EV serotypes; conditions: ~90% of isolates; ref Pevear et al., 1999; cited from earlier work
[10] = system: EV-D68 MP30 PP (mouse-adapted US/MO/14-18949); conditions: day 3 p.i., during animal model development; ref Hurst et al., 2019; cited from earlier work
mouse-adapted CVB5 = assay: Mouse model of CVB5-induced pancreatitis; assay type: in vivo, BALB/c mice; conditions: CVB5-infected mice, Fig. S20
[11] = system: Coxsackievirus B3-Woodruff (CVB3); assay type: cell-based; conditions: Coxsackievirus, B3|CVB3, HeLa, read-out: Inhibitory concentration EC50 against CVB3-Woodruff
[12] = system: Coxsackievirus B3-Woodruff (CVB3); assay: microbe, parasite or virus in culture; conditions: B3|CVB3, HeLa
Coxsackievirus B5 (CVB5) = assay: CVB5 CPE rescue; assay type: cell-based; conditions: Enterovirus B, B5|CVB5, Vero, read-out: EC50 against CVB5

Chain of CYP3A4 (Homo sapiens, UniProt P08684) (P08684 whole entry): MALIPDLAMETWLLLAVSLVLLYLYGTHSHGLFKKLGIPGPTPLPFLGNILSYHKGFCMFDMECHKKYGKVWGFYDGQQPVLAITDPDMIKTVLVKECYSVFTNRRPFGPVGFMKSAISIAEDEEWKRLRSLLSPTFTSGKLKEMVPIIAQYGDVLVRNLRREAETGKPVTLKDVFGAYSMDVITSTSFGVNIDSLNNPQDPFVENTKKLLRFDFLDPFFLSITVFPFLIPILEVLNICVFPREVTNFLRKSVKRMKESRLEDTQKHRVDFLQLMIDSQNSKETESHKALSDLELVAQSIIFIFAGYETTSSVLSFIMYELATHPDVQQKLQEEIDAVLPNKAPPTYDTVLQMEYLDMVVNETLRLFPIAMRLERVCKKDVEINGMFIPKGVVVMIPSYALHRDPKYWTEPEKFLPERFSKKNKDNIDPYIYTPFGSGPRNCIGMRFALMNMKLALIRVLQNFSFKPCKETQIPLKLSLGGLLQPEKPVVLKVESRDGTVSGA

Cl.N=C(N)N [guanidine, Guanidine HCl, reference compound]
Lung virus titers [1]: showed a reduction
Neurological scores ([2]; post-challenge study): reduced the neurological score on day 3 post-infection
Mice protected from challenge infection ([2]; post-challenge study (treatment 4 hours post-infection)): > 80%
Mice protected from challenge infection ([2]; pre-challenge study (treatment 2 hours pre-infection)): 100%
Protection from weight loss ([2]; pretreatment, P≤0.0001, Fig. S19): significant protection

CNCCC(Oc1ccc(C(F)(F)F)cc1)c1ccccc1 (stereo not shown) [fluoxetine]
Viral load (EV-D68 [3]): did not reduce the viral load

Cc1cc(CCCOc2c(C)cc(-c3noc(C(F)(F)F)n3)cc2C)on1 [Pleconaril]
IC50 (EV-71): 340 to 1420 nM
EC50 (EV-D68 [4]): 430 nM
CYP3A induction, of control (CYP3A4 [5]): 13 % of control
CYP3A induction (CYP3A4 [5]; single donor in duplicate): 1.7 x
PXR agonism (in words) [6]: neither 11526092 nor pleconaril is an agonist
Effect on the treatment of the common cold ([7]; 400 mg three times a day over five days, ref Hayden et al., 2003): no statistically significant effect
Patients with clinical improvement ([7]; chronic meningoencephalitis, ref Aradottir et al., 2001, Rotbart et al.): 78%
Neonates in whom treatment proved effective ([7]; neonates with severe enteroviral hepatitis, ref Aradottir et al., 2001): 2 of 3
Effect on CYP3A4 (in words) (CYP3A4 [8]): activation (or autoactivation) of CYP3A4
IC90 [9]: ≤ 180 nM
Lung virus titers [10]: did not demonstrate any antiviral activity
Histology of pancreatic tissue (mouse-adapted CVB5): no signs of tissue damage
EC50 [11]: 150 ± 10 nM
EC50 ([12]; read-out: Inhibitory concentration EC50 against CVB3-Woodruff, HeLa cells, adding drug to virus and then infecting at MOI 1 PFU / cell, ± SEM): 45 nM
EC50 ([12]; read-out: Inhibitory concentration EC50 against CVB3-Woodruff, HeLa cells, adding drug to virus and then infecting at MOI 3 PFU / cell, ± SEM): 333 ± 210 nM
EC50 (Coxsackievirus B5 (CVB5)): 0.66 nM
